Tests used:
Type in all cases: in vivo
corn (Zea mays) [1] = experiment: Test C preemergence, corn; settings: 0 is no effect, 100 is complete control
In short: (§1)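 Corn, ragweed and goosegrass were sown in loam/sand and given a preemergence directed soil spray of compounds in a non-phytotoxic solvent with surfactant. Galium was sprayed postemergence at 2–10 cm height, one- to two-leaf stage. After 10 or 12 days in a greenhouse, injury was rated visually against untreated controls on a 0 (no effect) to 100 (complete control) scale.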

[2] = tested on: goosegrass (Eleusine indica); experiment: Test C preemergence, goosegrass; settings: 0 is no effect, 100 is complete control
In short: as §1

[3] = tested on: ragweed (common ragweed, Ambrosia artemisiifolia); experiment: Test C preemergence, ragweed; settings: 0 is no effect, 100 is complete control
In short: as §1

[4] = tested on: blackgrass (Alopecurus myosuroides); experiment: Test C postemergence, blackgrass; settings: visual injury, 0 to 100 scale (0 no effect, 100 complete control)
In short: (§2)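 Pre: soil sprayed at seeding. Post: seedlings treated at 1–2 leaves (2–10 cm). Vehicle non-phytotoxic solvent mix with surfactant; loam–sand medium; greenhouse; visual injury read at 10 or 12 days, scale 0–100.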

corn (Zea mays) [5] = experiment: Test C postemergence, corn; settings: for Corn plant response rating: visual injury, 0 to 100 scale (0 no effect, 100 complete control); for Plant response rating (0 to 100 scale), Corn: 0 is no effect, 100 is complete control
[6] = tested on: foxtail, giant (giant foxtail, Setaria faberi); experiment: Test C postemergence, giant foxtail; settings: for Foxtail, Giant plant response rating: visual injury, 0 to 100 scale (0 no effect, 100 complete control); for Plant response rating (0 to 100 scale), Foxtail, Giant: 0 is no effect, 100 is complete control
soybean (Glycine max) = experiment: Test C postemergence, soybean; settings: for Soybean plant response rating: visual injury, 0 to 100 scale (0 no effect, 100 complete control)
[7] = tested on: wheat (Triticum aestivum); experiment: Test C postemergence, wheat; settings: for Wheat plant response rating: visual injury, 0 to 100 scale (0 no effect, 100 complete control)
In short: as §2

[8] = 125 g ai/ha Postemergence, 0 is no effect, 100 is complete control

Structure (SMILES) | Plant response rating (0 to 100 scale), Corn (corn (Zea mays) [1]; 31 g ai/ha Preemergence) | Plant response rating (0 to 100 scale), Corn (corn (Zea mays) [1]; 125 g ai/ha Preemergence) | Plant response rating (0 to 100 scale), Goosegrass ([2]; 31 g ai/ha Preemergence) | Plant response rating (0 to 100 scale), Goosegrass ([2]; 125 g ai/ha Preemergence) | Plant response rating (0 to 100 scale), Ragweed ([3]; 31 g ai/ha Preemergence) | Plant response rating (0 to 100 scale), Ragweed ([3]; 125 g ai/ha Preemergence) | Blackgrass plant response rating ([4]; 31 g ai/ha Postemergence) | Corn plant response rating (corn (Zea mays) [5]; 31 g ai/ha Postemergence) | Plant response rating (0 to 100 scale), Corn (corn (Zea mays) [5]; 125 g ai/ha Postemergence) | Foxtail, Giant plant response rating ([6]; 31 g ai/ha Postemergence) | Plant response rating (0 to 100 scale), Foxtail, Giant ([6]; 125 g ai/ha Postemergence) | Soybean plant response rating (soybean (Glycine max); 31 g ai/ha Postemergence) | Plant response rating (0 to 100 scale), Soybean (soybean (Glycine max); [8]) | Wheat plant response rating ([7]; 31 g ai/ha Postemergence) | Plant response rating (0 to 100 scale), Wheat [7, 8] | Soybean plant response rating (soybean (Glycine max); 125 g ai/ha Postemergence) | Wheat plant response rating ([7]; 125 g ai/ha Postemergence) | Blackgrass plant response rating ([4]; 125 g ai/ha Postemergence) | Corn plant response rating (corn (Zea mays) [5]; 125 g ai/ha Postemergence) | Foxtail, Giant plant response rating ([6]; 125 g ai/ha Postemergence)
Cc1c(N2CCC(OC3CC3)C2=O)cc(N(COC(=O)C(C)(C)C)S(=O)(=O)C(F)(F)F)c(C)c1F (centres unmarked) [Compound 23] | 10 | 20 | 70 | 100 | 30 | 90 | 10 | 30 | 90 | 0 | 80 | 60 | 60 | 10 | 60 |  |  |  |  | 
Cc1c(NS(=O)(=O)C(F)(F)F)cc(N2CCC(OC3CCC3)C2=O)c(C)c1F (centres unmarked) [Compound 25] | 30 | 90 | 90 | 100 | 90 | 100 | 0 | 30 | 60 | 30 | 30 | 100 |  | 50 |  | 100 | 60 |  |  | 
Cc1c(NS(=O)(=O)C(F)(F)F)cc(N2CCC(OC3CC3)C2=O)c(C)c1F (centres unmarked) [Compound 26] | 60 | 90 | 90 | 100 | 90 | 100 | 40 | 50 | 90 | 40 | 90 | 70 |  | 60 |  | 100 | 70 |  |  | 
Cc1c(N2CCC(OC3CCC3)C2=O)cc(N(COC(=O)C(C)(C)C)S(=O)(=O)C(F)(F)F)c(C)c1F (centres unmarked) [Compound 28] | 0 | 20 | 70 | 100 | 40 | 100 | 10 | 10 | 30 | 30 | 70 | 50 |  | 20 |  | 60 | 60 |  |  | 
Cc1cc(C)c(N2CCC(OC3COC3)C2=O)cc1NS(=O)(=O)C(F)(F)F (centres unmarked) [Compound 34] | 10 | 80 | 30 | 100 | 50 | 100 | 30 | 60 | 90 | 40 | 90 | 60 |  | 70 |  | 70 | 80 |  |  | 
Cc1c(NS(=O)(=O)C(F)(F)F)cc(N2CCCC(OC3CC3)C2=O)c(C)c1F (centres unmarked) [Compound 35] | 30 | 50 | 100 | 100 | 50 | 90 | 50 | 50 | 90 | 40 | 90 | 60 |  | 60 |  | 60 | 60 |  |  | 
Cc1c(NS(=O)(=O)C(F)(F)F)cc(N2CCCC(OC3CCC3)C2=O)c(C)c1F (centres unmarked) [Compound 36] | 30 | 90 | 90 | 100 | 70 | 90 | 20 | 0 | 20 | 10 | 30 | 70 |  | 60 |  | 70 | 60 |  |  | 
Cc1c(N2CCCC(OC3CC3)C2=O)cc(N(COC(=O)C(C)(C)C)S(=O)(=O)C(F)(F)F)c(C)c1F (centres unmarked) [Compound 37] | 0 | 10 | 50 | 100 | 0 | 90 | 0 | 10 | 90 | 10 | 80 | 60 |  | 10 |  | 70 | 60 |  |  | 
CC(=O)N(c1cc(N2CCC(OC3CC3)C2=O)c(C)cc1Cl)S(=O)(=O)C(F)(F)F (centres unmarked) [Compound 38] | 20 | 80 | 100 | 100 | 70 | 90 | 40 | 80 | 90 | 50 | 90 | 70 |  | 60 |  | 80 | 60 |  |  | 
COC(=O)N(c1cc(N2CCC(OC3CC3)C2=O)c(C)cc1Cl)S(=O)(=O)C(F)(F)F (centres unmarked) [Compound 40] | 50 | 90 | 100 | 100 | 70 | 90 | 10 | 80 | 100 | 50 | 90 | 70 |  | 60 |  | 80 | 70 |  |  | 
Cc1cc(C)c(N2CCC(OCC3CC3(F)F)C2=O)cc1NS(=O)(=O)C(F)(F)F (centres unmarked) [Compound 41] | 90 | 100 | 90 | 100 | 70 | 90 | 40 | 40 |  | 20 |  | 90 |  | 60 |  | 90 | 60 | 60 | 90 | 90
Cc1cc(C)c(N2CCC(OCC3CCCO3)C2=O)cc1NS(=O)(=O)C(F)(F)F (centres unmarked) [Compound 42] | 0 | 70 | 50 | 100 | 10 | 60 | 0 | 20 |  | 20 |  | 70 |  | 0 |  | 80 | 80 | 50 | 90 | 90

— US20240158348A1, “HERBICIDAL CYCLIC AMIDES N-SUBSTITUTED WITH A HALOALKYLSULFONYLANILIDE GROUP” (FMC Corporation, priority 2021, published 2024)
